From ChEMBL document CHEMBL5034041, “Discovery of Meso-(meta-Pyridinium) BODIPY Photosensitizers: In Vitro and In Vivo Evaluations for Antimicrobial Photodynamic Therapy” (J Med Chem, 2021)
The source made the active and inactive calls. No cut-off for these calls is given here.

Legend:
Staphylococcus aureus [1] = experiment: Photodynamic antimicrobial activity against Staphylococcus aureus ATCC 29213 preincubated for 15 mins followed by irradiation with 90 mW/cm^2 light for 15 mins and measured after 24 hrs; assay type: functional; details: ATCC 29213, light or radiation study, time 24.5 hrs
Candida albicans [2] = experiment: Photodynamic antimicrobial activity against Candida albicans ATCC 14053 preincubated for 15 mins followed by irradiation with 90 mW/cm^2 light for 15 mins and measured after 24 hrs; assay type: functional; details: ATCC 14053, light or radiation study, time 24.5 hrs
Escherichia coli [3] = experiment: Photodynamic antimicrobial activity against Escherichia coli ATCC25922 assessed as loss of microbial viability at 2 uM preincubated for 15 mins followed by light irradiation at 81 J/cm^2 dose for 15 mins and measured after 36 hrs; assay type: functional, ATCC 25922; details: time 36.5 hrs
Candida albicans [4] = experiment: Photodynamic antimicrobial activity against Candida albicans ATCC14053 assessed as loss of microbial viability at 2 uM preincubated for 15 mins followed by light irradiation at 81 J/cm^2 dose for 15 mins and measured after 36 hrs; assay type: functional; details: time 36.5 hrs
Escherichia coli [5] = experiment: Photodynamic antimicrobial activity against Escherichia coli ATCC25922 assessed as decrease in viable cell log count at 1.25 uM preincubated for 15 mins followed by light irradiation at 81 J/cm^2 dose for 15 mins and measured after 36 hrs; assay type: functional, ATCC 25922; details: time 36.5 hrs
Staphylococcus aureus [6] = experiment: Photodynamic antimicrobial activity against methicillin resistant Staphylococcus aureus ATCC43300 preincubated for 15 mins followed by irradiation with 90 mW/cm^2 light for 15 mins and measured after 24 hrs; assay type: functional; details: ATCC43300, light or radiation study, time 24.5 hrs
[7] = Drug uptake in Staphylococcus aureus ATCC 29213 at 10 uM incubated at 37 degree for 15 mins by UV-vis absorption spectra analysis relative to control; assay type: ADME; details: 0.25 h
[8] = Drug uptake in Escherichia coli ATCC 25922 at 10 uM incubated at 37 degree for 15 mins by UV-vis absorption spectra analysis relative to control; assay type: ADME; details: 0.25 h
Candida albicans [9] = experiment: Drug uptake in Candida albicans ATCC 14053 at 10 uM incubated at 37 degree for 15 mins by UV-vis absorption spectra analysis relative to control; assay type: ADME, organism-based; details: 0.25 h
Escherichia coli [10] = experiment: Photodynamic antimicrobial activity against Escherichia coli ATCC25922 assessed as decrease in viable cell log count at 2.5 uM preincubated for 15 mins followed by light irradiation at 81 J/cm^2 dose for 15 mins and measured after 36 hrs; assay type: functional, ATCC 25922; details: time 36.5 hrs
[11] = Octanol-water partition coefficient, logP of the compound at 2 uM after 20 hrs by HPLC analysis; assay type: physicochemical
Escherichia coli [12] = experiment: Photodynamic antimicrobial activity against Escherichia coli ATCC25922 assessed as decrease in viable cell log count at 5 uM preincubated for 15 mins followed by light irradiation at 81 J/cm^2 dose for 15 mins and measured after 36 hrs; assay type: functional, ATCC 25922; details: time 36.5 hrs
Escherichia coli [13] = experiment: Photodynamic antimicrobial activity against Escherichia coli ATCC 25922 preincubated for 15 mins followed by irradiation with 90 mW/cm^2 light for 15 mins and measured after 24 hrs; assay type: functional; details: ATCC 25922, light or radiation study, time 24.5 hrs
Staphylococcus aureus [14] = experiment: Photodynamic antimicrobial activity against Staphylococcus aureus […] assessed as loss of microbial viability at 2 uM preincubated for 15 mins followed by light irradiation at 81 J/cm^2 dose for 15 mins and measured after 36 hrs; assay type: functional; details: time 36.5 hrs
Staphylococcus aureus [15] = experiment: Photodynamic antimicrobial activity against methicillin resistant Staphylococcus aureus ATCC43300 assessed as loss of microbial viability at 2 uM preincubated for 15 mins followed by light irradiation at 81 J/cm^2 dose for 15 mins and measured after 36 hrs; assay type: functional; details: time 36.5 hrs

SMILES	MIC (Staphylococcus aureus [1])	MIC (Candida albicans [2])	Activity (Escherichia coli [3])	Activity (Candida albicans [4])	log(activity) (Escherichia coli [5])	MIC (Staphylococcus aureus [6])	Drug uptake [7]	Drug uptake [8]	Drug uptake (Candida albicans [9])	log(activity) (Escherichia coli [10])	logP at 20 h, 2 µM [11]	log(activity) (Escherichia coli [12])	MIC (Escherichia coli [13])	Activity (Staphylococcus aureus [14])	Activity (Staphylococcus aureus [15])
CC1=C(I)C(C)=[N+]2C1=C(c1cccc[n+]1C)c1c(C)c(I)c(C)n1[B-]2(F)F.[I-]	10 µM	2.5 µM	99.3%	77%	2.53	1.25 µM	4%	10%	4%	5.26	0.17	6.62	1.25 µM	99.9%	–
CC1=C(I)C(C)=[N+]2C1=C(c1ccccn1)c1c(C)c(I)c(C)n1[B-]2(F)F	–	–	–	–	–	–	–	–	–	–	> 4	–	–	–	–
CC1=C(I)C(C)=[N+]2C1=C(c1cc[n+](C)cc1)c1c(C)c(I)c(C)n1[B-]2(F)F.[I-]	2.5 µM	2.5 µM	99.4%	77%	–	1.25 µM	65%	53%	23%	–	2.14	–	1.25 µM	Active	Active
CC1=C(I)C(C)=[N+]2C1=C(c1ccc[n+](Cc3ccccc3)c1)c1c(C)c(I)c(C)n1[B-]2(F)F.[Br-]	2.5 µM	1.25 µM	–	Active	–	0.63 µM	80%	68%	25%	–	> 4	–	0.63 µM	>99.9999%	–
